# Experimental data published in patent publication US8450319B2, “Pyrrolopyridazinone compound” (Ube Industries, Ltd., priority 2006, dated 2013).
# Counter-ions that a name gives are not always drawn.
row,melting point,Compound
1,245 to 246 °C,"C#CCc1c(-c2ccc(OC(F)F)c(OC3CC3)c2)[nH]c2cn[nH]c(=O)c12 [Example 71, 2-(3-Cyclopropoxy-4-difluoromethoxyphenyl)-3-(2-propynyl)-1,5-dihydropyrrolo[2,3-d]pyridazin-4-one]"
2,155 to 163 °C,"O=C(O)c1cccc(Cc2c(-c3ccc(OC(F)F)c(OC4CC4)c3)[nH]c3cn[nH]c(=O)c23)c1 [Example 27, 3-(3-Carboxybenzyl)-2-(3-cyclopropoxy-4-difluoromethoxyphenyl)-1,5-dihydropyrrolo[2,3-d]pyridazin-4-one]"
3,194 to 197 °C,"O=c1[nH]ncc2[nH]c(-c3ccc(OC(F)F)c(OC4CC4)c3)c(CCC3CC3)c12 [Example 70, 2-(3-cyclopropoxy-4-difluoromethoxyphenyl)-3-(2-cyclopropylethyl)-1,5-dihydropyrrolo[2,3-d]pyridazin-4-one]"
4,294 to 295 °C,"O=c1[nH]ncc2[nH]c(-c3ccc(OC(F)F)c(OCC4CC4)c3)cc12 [Example 35, 2-(3-Cyclopropylmethoxy-4-difluoromethoxyphenyl)-1,5-dihydropyrrolo[2,3-d]pyridazin-4-one]"
5,224 to 227 °C,"CCc1c(-c2ccc(OC(F)F)c(OCC3CC3)c2)[nH]c2cn[nH]c(=O)c12 (as salt: HCl) [Example 37, 2-(3-Cyclopropylmethoxy-4-difluoromethoxyphenyl)-3-ethyl-1,5-dihydropyrrolo[2,3-d]pyridazin-4-one HCl adduct]"
6,256 to 258 °C,"COc1ccc(-c2[nH]c3cn[nH]c(=O)c3c2Cl)cc1OCC1CC1 [Example 47, 3-Chloro-2-(3-cyclopropylmethoxy-4-methoxyphenyl)-1,5-dihydropyrrolo[2,3-d]pyridazin-4-one]"
7,104 to 107 °C,"COCc1c(-c2ccc(OC(F)F)c(OC3CC3)c2)[nH]c2cn[nH]c(=O)c12 [Example 11, 2-(3-Cyclopropoxy-4-difluoromethoxyphenyl)-3-methoxymethyl-1,5-dihydropyrrolo[2,3-d]pyridazin-4-one]"
8,191 to 193 °C,"CCCCCc1c(-c2ccc(OC(F)F)c(OC3CC3)c2)[nH]c2cn[nH]c(=O)c12 [Example 68, 2-(3-Cyclopropoxy-4-difluoromethoxyphenyl)-3-pentyl-1,5-dihydropyrrolo[2,3-d]pyridazin-4-one]"
9,176 to 179 °C,"C=CCc1c(-c2ccc(OC(F)F)c(OC3CC3)c2)[nH]c2cn[nH]c(=O)c12 [Example 74, 2-(3-Cyclopropoxy-4-difluoromethoxyphenyl)-3-(2-propenyl)-1,5-dihydropyrrolo[2,3-d]pyridazin-4-one]"
10,291 to 299 °C,"COc1ccc(-c2[nH]c3cn[nH]c(=O)c3c2Cl)cc1OC(C)C [Example 48, 3-Chloro-2-(3-isopropoxy-4-methoxyphenyl)-1,5-dihydropyrrolo[2,3-d]pyridazin-4-one]"
11,> 300 °C,"Cc1c(-c2ccc(OC(F)F)c3c2C=CC(C)(C)O3)[nH]c2cn[nH]c(=O)c12 (as salt: HCl) [Example 53, 2-(8-Difluoromethoxy-2,2-dimethyl-2H-chromen-5-yl)-3-methyl-1,5-dihydropyrrolo[2,3-d]pyridazin-4-one HCl adduct]"
12,208 to 210 °C,"CCCc1c(-c2ccc(OC(F)F)c(OC3CC3)c2)[nH]c2cn[nH]c(=O)c12 [Example 6, 2-(3-Cyclopropoxy-4-difluoromethoxyphenyl)-3-propyl-1,5-dihydropyrrolo[2,3-d]pyridazin-4-one]"
13,138 to 143 °C,"O=c1[nH]ncc2[nH]c(-c3ccc(OC(F)F)c(OC4CC4)c3)c(-c3ccccc3)c12 [Example 17, 2-(3-Cyclopropoxy-4-difluoromethoxyphenyl)-3-phenyl-1,5-dihydropyrrolo[2,3-d]pyridazin-4-one]"
14,190 to 191 °C,"O=c1[nH]ncc2[nH]c(-c3ccc(OC(F)F)c(OC4CC4)c3)c(CO)c12 [Example 10, 2-(3-Cyclopropoxy-4-difluoromethoxyphenyl)-3-hydroxymethyl-1,5-dihydropyrrolo[2,3-d]pyridazin-4-one]"
15,193 to 195 °C,"O=c1[nH]ncc2[nH]c(-c3ccc(OC(F)F)c(OC4CC4)c3)c(Cc3ccc(F)cc3)c12 [Example 24, 2-(3-Cyclopropoxy-4-difluoromethoxyphenyl)-3-(4-fluorobenzyl)-1,5-dihydropyrrolo[2,3-d]pyridazin-4-one]"
16,248 to 262 °C,"CC(C)Oc1cc(-c2[nH]c3cn[nH]c(=O)c3c2Cl)ccc1OC(F)F [Example 40, 3-Chloro-2-(4-difluoromethoxy-3-isopropoxyphenyl)-1,5-dihydropyrrolo[2,3-d]pyridazin-4-one]"

row,melting point,Compound
1,287 to 292 °C,"O=c1[nH]ncc2[nH]c(-c3ccc(OC(F)F)c(OC4CC4)c3)cc12 [Example 1, 2-(3-Cyclopropoxy-4-difluoromethoxyphenyl)-1,5-dihydropyrrolo[2,3-d]pyridazin-4-one]"
2,130 to 135 °C,"N#Cc1cccc(Cc2c(-c3ccc(OC(F)F)c(OC4CC4)c3)[nH]c3cn[nH]c(=O)c23)c1 [Example 26, 3-(3-Cyanobenzyl)-2-(3-cyclopropoxy-4-difluoromethoxyphenyl)-1,5-dihydropyrrolo[2,3-d]pyridazin-4-one]"
3,281 to 283 °C,"O=c1[nH]ncc2[nH]c(-c3ccc(OC(F)F)c(OC4CC4)c3)c(Cl)c12 [Example 2, 3-Chloro-2-(3-cyclopropoxy-4-difluoromethoxyphenyl)-1,5-dihydropyrrolo[2,3-d]pyridazin-4-one]"
4,170 to 172 °C,"O=c1[nH]ncc2[nH]c(-c3ccc(OC(F)F)c(OC4CC4)c3)c(COCC3CC3)c12 [Example 59, 2-(3-Cyclopropoxy-4-difluoromethoxyphenyl)-3-cyclopropylmethoxymethyl-1,5-dihydropyrrolo[2,3-d]pyridazin-4-one]"
5,294 to 297 °C,"O=c1[nH]ncc2[nH]c(-c3ccc(OC(F)F)c(OC4CC4)c3)c(-c3cn[nH]c3)c12 [Example 18, 2-(3-Cyclopropoxy-4-difluoromethoxyphenyl)-3-(4-pyrazolyl)-1,5-dihydropyrrolo[2,3-d]pyridazin-4-one]"
6,269 to 273 °C,"CC(C)Oc1cc(-c2cc3c(=O)[nH]ncc3[nH]2)ccc1OC(F)F [Example 39, 2-(4-Difluoromethoxy-3-isopropoxyphenyl)-1,5-dihydropyrrolo[2,3-d]pyridazin-4-one]"
7,199 to 201 °C,"O=c1[nH]ncc2[nH]c(-c3ccc(OC(F)F)c(OC4CC4)c3)c(CCc3ccccc3)c12 [Example 21, 2-(3-Cyclopropoxy-4-difluoromethoxyphenyl)-3-phenethyl-1,5-dihydropyrrolo[2,3-d]pyridazin-4-one]"
8,265 to 267 °C,"CC(C)c1c(-c2ccc(OC(F)F)c(OC3CC3)c2)[nH]c2cn[nH]c(=O)c12 [Example 7, 2-(3-Cyclopropoxy-4-difluoromethoxyphenyl)-3-isopropyl-1,5-dihydropyrrolo[2,3-d]pyridazin-4-one]"
9,293 to 294 °C,"COc1ccc(-c2[nH]c3cn[nH]c(=O)c3c2Cl)cc1OC1CC1 [Example 42, 3-Chloro-2-(3-cyclopropoxy-4-methoxyphenyl)-1,5-dihydropyrrolo[2,3-d]pyridazin-4-one]"
10,293 to 296 °C (dec.),"COc1ccc(-c2[nH]c3cn[nH]c(=O)c3c2Br)cc1OC1CC1 [Example 43, 3-Bromo-2-(3-cyclopropoxy-4-methoxyphenyl)-1,5-dihydropyrrolo[2,3-d]pyridazin-4-one]"
11,245 to 246 °C,"Cc1c(-c2ccc(OC(F)F)c(OC3CC3)c2)[nH]c2cn[nH]c(=O)c12 [Example 4, 2-(3-Cyclopropoxy-4-difluoromethoxyphenyl)-3-methyl-1,5-dihydropyrrolo[2,3-d]pyridazin-4-one]"
12,133 to 162 °C,"CCC(CC)OCc1c(-c2ccc(OC(F)F)c(OC3CC3)c2)[nH]c2cn[nH]c(=O)c12 [Example 65, 2-(3-Cyclopropoxy-4-difluoromethoxyphenyl)-3-(1-ethylpropoxymethyl)-1,5-dihydropyrrolo[2,3-d]pyridazin-4-one]"
13,224 to 226 °C,"COc1cccc(Cc2c(-c3ccc(OC(F)F)c(OC4CC4)c3)[nH]c3cn[nH]c(=O)c23)n1 [Example 28, 2-(3-Cyclopropoxy-4-difluoromethoxyphenyl)-3-(6-methoxy-2-pyridylmethyl)-1,5-dihydropyrrolo[2,3-d]pyridazin-4-one]"
14,208 to 210 °C,"O=c1[nH]ncc2[nH]c(-c3ccc(OC(F)F)c(OC4CC4)c3)c(Cc3cccc(F)c3)c12 [Example 23, 2-(3-Cyclopropoxy-4-difluoromethoxyphenyl)-3-(3-fluorobenzyl)-1,5-dihydropyrrolo[2,3-d]pyridazin-4-one]"
15,> 300 °C,"N#Cc1ccccc1Cc1c(-c2ccc(OC(F)F)c(OC3CC3)c2)[nH]c2cn[nH]c(=O)c12 [Example 25, 3-(2-Cyanobenzyl)-2-(3-cyclopropoxy-4-difluoromethoxyphenyl)-1,5-dihydropyrrolo[2,3-d]pyridazin-4-one]"

row,Compound,melting point
1,"CC(C)(C)OCc1c(-c2ccc(OC(F)F)c(OC3CC3)c2)[nH]c2cn[nH]c(=O)c12 [Example 64, 3-(tert-Butoxymethyl)-2-(3-cyclopropoxy-4-difluoromethoxyphenyl)-1,5-dihydropyrrolo[2,3-d]pyridazin-4-one]",> 300 °C
2,"COc1ccc(-c2[nH]c3cn[nH]c(=O)c3c2Cl)cc1OC1CCC1 [Example 45, 3-Chloro-2-(3-cyclobutoxy-4-methoxyphenyl)-1,5-dihydropyrrolo[2,3-d]pyridazin-4-one]",285 to 287 °C
3,"CCC(C)OCc1c(-c2ccc(OC(F)F)c(OC3CC3)c2)[nH]c2cn[nH]c(=O)c12 (stereo not drawn) [Example 63, 3-(sec-Butoxymethyl)-2-(3-cyclopropoxy-4-difluoromethoxyphenyl)-1,5-dihydropyrrolo[2,3-d]pyridazin-4-one]",103 to 106 °C
4,"O=c1[nH]ncc2[nH]c(-c3ccc(OC(F)F)c(OC4CCC4)c3)c(Cl)c12 [Example 32, 3-Chloro-2-(3-cyclobutoxy-4-difluoromethoxyphenyl)-1,5-dihydropyrrolo[2,3-d]pyridazin-4-one]",273 to 275 °C
5,"COc1ccc(-c2cc3c(=O)[nH]ncc3[nH]2)cc1OC1CCCC1 [Example 46, 2-(3-Cyclopentoxy-4-methoxyphenyl)-1,5-dihydropyrrolo[2,3-d]pyridazin-4-one]",290 °C (dec.)
